Consider one compound from US20100266696A1, “Organic Compounds” (priority 2007, published 2010).

A short description of series [1]: Laser light diffraction particle size analysis of high pressure homogenised glycopyrrolate suspension (Example 1). It is filed as physicochemical. The note with it: suspension in acetone after homogenisation at 950 bar, 48 passes; ultrasonication 60 W 480 s. Here is the method: The suspension is then homogenised at a pressure drop of 950 bar, a reflux temperature of about 9-12.5° C., and a mixing/reflux vessel jacket temperature of 2° C. The piston pump stroke frequency is about 60, and the process is run for a total of 60 minutes, which is equivalent to a total of 48 passes or homogenisation cycles. Samples are also taken as in process control after 15 (12 passes) and 30 (24 passes) minutes, and analyzed along with the final product.
(§1) The crystallites appear to break into fairly regular, rectangularly shaped fragments of smaller size in the early stages of homogenization, which are subsequently comminuted and smoothed further. Particle size decreases further at an increasing number of homogenization cycles, after 24 passes the average particle size is around 1 μm already, and the particle edges are noticeably more rounded than initially or after only 12 passes. No significant changes are observed in particles isolated after 24 and 48 passes through the homogeniser.

For series [2] the following is noted: final product after spray drying; ultrasonication 60 W 480 s. Here is the method: The spray dryer is operated at an outlet temperature of around 75-78° C., i.e., above the boiling point of neat acetone, in order to avoid solvent condensation in the spray tower. The inlet temperature is set to 100° C., and the experiment initiated by spraying pure solvent. The spray rate is set to a flow of 5 mL/min using a Büchi lab scale spray dryer, with the aspirator operated at 100%. The nitrogen flow rate is kept constant at 600-700 l/h. At these operating conditions, the homogenised suspension is sprayed, and a dry powder is collected in a cyclone followed by a cloth filter.
Once again ultrasonication at 60 W is applied for 480 seconds to break any loose aggregates in the product prior to starting the particle size distribution measurement.
The final product after spray drying is re-characterized after 25 days of storage at ambient conditions as well as at 4° C.

A short description of series [3]: Scanning electron microscopy of glycopyrrolate materials (Example 1). It is filed as physicochemical.
Description: as §1
(§2) Particles still appear as rectangularly shaped fragments with smoothed edges and an average size around or slightly above 1 μm. The specific surface area of the dried suspension (analysed by adsorption analysis, BET surface measurement) is determined to be 4.0 m^2/g.

Series [4] can be described thus: BET specific surface area (adsorption analysis). It is filed as physicochemical. Here is the method: as §2
The specific surface area of the final product by BET analysis is determined to be 4.0 m2/g.

Series [5] in a line: X-ray powder diffraction and DSC crystallinity. It is filed as physicochemical. The note with it: final product after spray drying.
Series [6] is described as follows: Aggregation/agglomeration tendency: jet-milled vs high pressure homogenised and dried (Example 4). It is filed as physicochemical. The text has this:
The mill is equipped with 3 nozzles of 1.9 mm diameter. […] As a consequence, the material has to be co-milled with a force control agent such as magnesium stearate in order to obtain a freely flowable non-agglomerating micronised drug substance.

Regarding `C[N+]1(C)CCC(OC(=O)C(O)(c2ccccc2)C2CCCC2)C1.[Br-]` (stereo not shown) [glycopyrrolate, 3-[(cyclopentyl-hydroxyphenylacetyl)oxy]-1,1-dimethyl-pyrrolidinium bromide], in series [1], the “×10 mean particle size” value is 0.6 μm, the “×50 mean particle size” value was 1.3 μm and the “×90 mean particle size” value turned out to be 3.1 μm. For the same compound, in series [2], the “mean particle size, ×50” value turned out to be 1.7 μm and the “×90 value” was 3.6 μm. Further, the average particle size entry in series [3] (after 24 passes of homogenisation) is on record as “around 1 μm”. For the same compound, the “average size by scanning electron microscopy” value in series [3] (after homogenisation step) is recorded as “below 5 μm”. Moreover, the “average size by SEM” value in series [3] (spray dried glycopyrrolate) is given as approximately 1 μm. For the same compound, the “specific surface area (BET)” value in series [4] (dried suspension) amounted to 4.0 m^2/g. In addition, the “specific surface area by BET analysis” value in series [4] (final product) turned out to be 4.0 m2/g. The “crystallinity (XPRD and DSC) compared to coarse drug substance” value in series [5] was “no change in crystallinity”. Moreover, the “tendency to aggregate or agglomerate” value in series [6] (high pressure homogenised and subsequently dried material (Examples 1, 2 and 3)) is recorded as “no tendency to aggregate or agglomerate”. Also, in series [6] (micronised in fluid bed opposed jet mill), the “tendency to aggregate and agglomerate” value is “high tendency to aggregate and agglomerate”.
